In US20220119399A1, “COMPOUNDS AND COMPOSITIONS THAT CAUSE MYCN AND/OR CMYC DEGRADATION AND METHODS OF USE THEREOF” (THE TRUSTEES OF COLUMBIA UNIVERSITY IN THE CITY OF NEW YORK, priority 2018, published 2022):

Key:
[1] = tested on: PARP and caspase3 cleavage; assay: Western blot of apoptosis hallmarks (cleaved PARP, cleaved caspase 3); format: cell-based, human; details: SK-N-Be2 cells, 48 hrs
Text: Membranes were blocked using Odyssey Blocking Buffer (LI-COR) for 1 hr at room temperature. […] Primary antibodies used in these studies include: MycN (CST; 1:500 dilution), Actin (SCBT; 1:2000 dil.), cMYC (CST; 1:500 dil.), pAKT (S473; CST; 1:500 dil.), AKT (CST; 1:2000), pP70 (T389; CST; 1:1000) P70 (CST; 1:1000).

mutant isoform of CK2a1 = assay: Cell viability after expression of mutant CK2a1 isoform; details: versus GFP-expressing plasmid
CCL5 transcript = assay: qPCR of CCL5 transcript in A549 cells; format: cell-based; details: 48 hr
Protocol: Reverse transcription quantitative polymerase chain reaction (RT-qPCR) was used to quantify transcript abundance of genes of interest. Total RNA was isolated from cells using the Qiaquick RNeasy isolation kit following manufacturer's instruction (QIAGEN). RNA quality and abundance was measured using a nanodrop spectrophotometer. A total of 2 μg RNA was used as a template for reverse transcription reactions. cDNA synthesis was performed using TaqMan reverse transcriptase following the manufacturer's instructions, using both oligod(T) and random hexamers as primers for RT reactions. RNAse treatment of cDNA removed any residual RNA in cDNA samples. cDNA samples were diluted 10-fold into nuclease-free dH2O, and used as the template for quantitative PCR reactions were performed in a Viia7 […] thermocycler using SYBR green and gene-specific primers (Table 1). qPCR reactions were performed using the Viia7 Real-Time PCR system (Applied Biosystems), and relative transcript abundance evaluated using the deltaCT method, using the GAPDH housekeeping gene as normalization control.
In lung cancer, cMyc overexpression suppresses CCL5, an antigen that enables the immune system to detect cancer cells (Topper et al. 2017). By suppressing CCL5, cMyc enables tumors to evade immune surveillance (Topper et al. 2017). […]

SMILES | induction of apoptosis (PARP and caspase3 cleavage) [1] | resistance conferred by mutant CK2 isoform (mutant isoform of CK2a1) | increase of CCL5 transcript (CCL5 transcript)
CC(C)=CCc1c2c(c3occ(-c4ccc(O)c(O)c4)c(=O)c3c1O)C=CC(C)(C)O2 [pomiferin] | more potent inducer of apoptosis than CX-4945 | modest resistance | 
CC1(C)C=Cc2c(c3c(c4c(=O)c(-c5ccc(O)c(O)c5)coc24)OC(C)(C)CC3)O1 [isopomiferin] |  |  | 15 fold
